In US10568961B2, “Photosensitising composition and its uses” (DENTSPLY SIRONA Inc., priority 2008, dated 2020):

How the values were obtained:
Type in all cases: cell-based, Enterococcus faecalis
[1] = tested on: E. faecalis bacteria (ATCC 29212) biofilm; assay: Disinfection of four-week old biofilm in root canal (CFU from dentine shavings)
Description: The institutional review board of the National University of Singapore approved the collection and use of extracted human teeth for this experiment. Thirty single rooted teeth maintained in Phosphate Buffer Saline (PBS) with similar shape and sizes were selected for the following experiment. The crown (at the level of Cemento-Enamel Junction) and the […] of the root were removed using a microslice machine (Metal Research, England) to obtain standard sized specimens of 8 mm length. The prepared tooth specimens were selected for the experiments after inspecting for any signs of cracks or damages on the cementum. The remnants of the pulp tissue were removed from the root canal using a barbed broach and the tooth specimens were autoclaved before further experiments.
A single colony of E. faecalis bacteria (ATCC 29212) culture was incubated in All Culture Broth (AC Broth) for 8 hours. The optical density of the culture was adjusted to 1 at 600 nm that corresponds to 10^9 cells/mL. The sterilized tooth specimens were placed in the AC broth (50 mL) with the bacterial culture and incubated in an orbital incubator (120 rpm) at 37° C. under aerobic conditions. The culture medium was replenished once in every two days to remove dead cells and to ensure proper growth of bacteria. After four weeks of incubation, the tooth specimens were subjected to the following experiment.
This experiment was conducted to observe the efficiency of different antimicrobial treatments on a matured root canal biofilm. After the specific incubation period, the tooth specimens were removed and washed with sterile PBS. The specimens were randomly divided into five experimental groups and treated accordingly.
Group 2 (conventional PDT): The tooth specimens in this group were subjected to conventional PDT. The root canals of the specimens were filled with 100 μM of MB (photosensitization) for 20 minutes and was irradiated immediately with 660 nm laser light for 20 minutes to attain a total energy level of 36 J (n=6). […]

[2] = tested on: E. faecalis biofilms grown on a glass cover slip; assay: Structural damage to biofilm by PDT in vitro (CLSM, live/dead stain); details: seven-day biofilm, 664 nm, 31.84 J/cm^2
Method: The structural damage to biofilm caused by PDT was assessed on E. faecalis biofilms grown on a glass cover slip that was fixed covering a grove (6 mm diameter) made at the bottom part of a petri dish. E. faecalis cell suspension (100 μL containing ˜10^7 cells/mL) prepared from overnight grown culture in All-Culture (AC) media was added onto the saliva-coated glass-cover slip. Six petri dishes containing the biofilm were tested in each group. After seven days of incubation with periodical replacement of growth media, the biofilm was washed and photosensitised with either 100 μM MB in water or PF4 (MB in an emulsion produced by mixing perfluorodecahydro naphthalene:H2O2:triton-X100 in the ratio 75:24.5:0.5). These biofilms were incubated in the dark for ten minutes, after which the excess of the photosensitising formulation was partially replaced with perfluorodecahydro naphthalene and exposed to irradiation using 664 nm diode laser with a total fluence of 31.84 J/cm^2.
After the PDT, the washed biofilms were stained using 20 μL PBS containing 2 μL of live/dead stain (Molecular Probes, Eugene, Oreg., USA) and were observed using confocal laser scanning microscopy (CLSM). […] The optical sections of the biofilm structure were recorded and analyzed by using FluoView software (Olympus Corporation, Tokyo, Japan).

[3] = tested on: E. faecalis biofilm in root canals; assay: PDT of endodontic bacterial biofilm ex vivo (ten-week biofilm in tooth specimens)
Method: Thirty tooth blocks were prepared by removing the crown at the level of cementoenamel junction and the apical third of the root canal (˜8 mm long). All specimens were instrumented using K-files with sizes from #20 to #40. The smear layer formed during mechanical shaping was removed by rinsing the root canal with sodium hypochlorite (1%) followed by EDTA (100 mM). The prepared single-rooted tooth specimens were incubated with 50 mL of AC media inoculated with a single colony of E. faecalis as described elsewhere (George S and Kishen A, J Biomed Opt, 2000). Incubation was carried out for ten weeks at 37° C. with periodical replacement of growth media under constant shaking (120 rpm). After the incubation period, the tooth specimens were randomly divided into five groups and were treated as follows:
Group 2—Root canal-treatment (RCT) group (n=5): root canals were subjected to conventional cleaning and shaping procedures performed by using a sequence of endodontic file sizes (#25 to #50 K-files; Maillefer Instruments SA, Switzerland). The root canals were repeatedly irrigated with 5 mL of 5.2% sodium hypochlorite before and after instrumentation step using a 28-G needle and a syringe. Ethylenediaminetetraacetic acid (EDTA) 17% was also used at the end of instrumentation to remove the smear layer. Group 3—Conventional PDT group (n=5): root canals were subjected to minimal instrumentation (using #25 K file). These root canals were filled with 100 μM MB in water and were irradiated with 664 nm laser light with a total energy of 31.84 J/cm^2. Group 4—PF4 group (n=5): root canals were subjected to minimal instrumentation (using #25 K file) followed by PDT using PF4. Here, the root canals were filled with PF4 and were left in the dark for 10 minutes. After the sensitization period, the excess of the photosensitizing formulation was partially replaced with perfluorodecahydro naphthalene and the root canals were irradiated with 664 nm diode laser with a total fluence of 31.84 J/cm^2. Group 5—RCT+PF4 group (n=5): root canals were subjected to the conventional root canal disinfection procedure similar to the conventional RCT group (i.e. Group 2) followed by PDT using PF4.
After the specified treatment, the tooth-specimens were split open mesiodistally, and dentine shavings were collected using a round bur of 1 mm diameter held perpendicular to the root canal surface. The dentine shavings were collected at midpoint (coronoapically) from the two halves (buccal and lingual) of each root (n=12). […] Colony-forming units (CFU) were enumerated on the subsequent day, and the mean value of log10 number of bacteria and the standard error were calculated. […] The numbers of tubes positive for bacterial cells were counted against the total number of tubes.

[4] = after 4 hours of enrichment, compared with the control group

With `CN(C)c1ccc2nc3ccc(=[N+](C)C)cc-3sc2c1` [MB in water, Methylene blue] the “inactivation of bacteria” value [1] was “failed to show significant bacterial reduction”, the “difference in bacterial count” value ([1]; compared to control group) was 0.38 log10 and the bacterial kill ([1]; corresponds to log10 difference vs control group) was 59%. For the same compound, the “viability of biofilm bacteria after PDT” value ([2]; live/dead stain) was “increased the proportion of dead cells”, the “biofilm thickness after PDT” value ([2]; untreated biofilm 17 μm) was 12 μm and the “difference in the mean viable count” value [3, 4] was 1.5 log10. For the same compound, the “reduction in viable bacteria” value [3, 4] was 96.89%, the “% of tooth specimens positive for bacteria after 24 hours of enrichment” value ([3]; ten-week biofilm, dentine shavings) was 100% and the “CFU (log10) after 4 hours of enrichments (±SD)” value ([3]; ten-week biofilm, dentine shavings, control group 7.147) was 5.639 (±0.066) log10.
